Entries after “also recorded” stand apart in the source; their conditions may differ. Where a name gives a salt, the structure may show the parent alone.
Key:
A/M2 S31N mutant channel = conditions: cited from earlier work
A/M2 V27A mutant channel [1] = molecular target: T1, A/M2 V27A mutant channel (Influenza A virus, UniProt P0DOF5, V27A); format: cell-based
A/M2 V27A mutant channel [2] = molecular target: T1, A/M2 V27A mutant channel; conditions: cited from earlier work
[3] = system: A/WSN/33 virus (H1N1 subtype), N31S/V27A M2; format: cell-based, influenza A virus

Question: With NC12CC3CC(CC(C3)C1)C2 [Amantadine, 1-aminoadamantane] as the compound, how does the IC50 (A/M2 S31N mutant channel) read?
Answer: Its IC50 is 200 µM.

Question: And the “Inhibition by 100 μM for 2 min (%)” value (A/M2 V27A mutant channel [1])?
Answer: The value was 8.9 ± 1.0%.

Question: And the “Activity against the V27A mutant” value (A/M2 V27A mutant channel [2])?
Answer: Its value is “totally inactive”.

Question: With C1CC(C23CC4CC(CC(C4)C2)C3)CCN1 [Compound 2, 4-(1-adamantyl)piperidine hydrochloride] as the compound, how does the “Antiviral activity in 46-h PRA” value [3] read?
Answer: The value was “weak activity; also recorded: minimal antiviral activity”.

Question: And the “Binding behaviour” value (A/M2 V27A mutant channel [1])?
Answer: The value was “fast and weak”.

Question: For C1CC(C2C3CC4CC(C3)CC2C4)CCN1 (stereo not drawn) [Compound 3, 4-(Adamantan-2-yl)piperidine hydrochloride], which “Antiviral activity in 46-h PRA” value [3] is on record?
Answer: Its value is “inactive”.

Question: What does the source list for N=C(N)N1CCC(C23CC4CC(CC(C4)C2)C3)CC1 [Compound 7, N-amidyl-4-(1-adamantyl)piperidine hydrochloride]?
Answer: Antiviral activity in 46-h PRA [3]: inactive; Binding behaviour (A/M2 V27A mutant channel [1]): fast and weak binder

Question: Which “Antiviral activity in 46-h PRA” value [3] does the source give for C1CCC(C23CC4CC(CC(C4)C2)C3)NC1 (stereo not drawn) [Compound 8, 2-(1-adamantyl)piperidine hydrochloride] here?
Answer: The value was “inactive”.

Question: And the “Binding behaviour” value (A/M2 V27A mutant channel [1])?
Answer: The value was “no remarkable binding at all”.

Question: And the “Time after which inhibition is at steady-state” value (A/M2 V27A mutant channel [1])?
Answer: Its value is ≤ 1 min.

Question: Which “Antiviral activity in 46-h PRA” value [3] does the source give for N=C(N)N1CCC(C=C2C3CC4CC(C3)CC2C4)CC1 [Compound 19, 4-[(adamantan-2-ylidene)methyl]piperidine-1-carboximidamide hydrochloride] here?
Answer: Its value is “inactive”.

Source: article PMC5972026 (Journal of medicinal chemistry, 2017)
